Assay results published in patent US20210113598A1, “Combination of MIDH1 Inhibitors and DNA Hypomethylating Agents (HMA)” (Deutsches Krebsforschungszentrum (DKFZ) Stiftung des …, priority 2017, published 2021).

Key:
[1] = tested on: human IDH1 mutated AML cells; assay: Clonogenic progenitor (colony formation) assay, IDH1 mutated AML patient cells; assay type: cell-based; conditions: Compound A1 alone
Description: (§1) Colony-forming cell (CFC) units were assayed in methylcellulose (Methocult H4100; StemCell Technologies Inc.) supplemented with 10 ng/mL IL3, 10 ng/mL GM-CSF, 50 ng/mL SCF, 50 ng/mL FLT3-ligand and 3 U/mL EPO (PeproTech). […] of Compound A1 was added in combination with increasing concentrations of Azacytidine to methylcellulose containing 10exp5 human mononuclear cells and were plated in duplicate. Colonies were evaluated microscopically 10 to 14 days after plating by standard criteria. Graphs was plotted as proportion of colonies relative to vehicle treated cells.

IDH1 wildtype AML cells = assay: Clonogenic progenitor (colony formation) assay, IDH1 wildtype AML patient cells; assay type: cell-based, human; conditions: Compound A1 alone
Description: as §1

human IDH1 mutated AML [2] = conditions: background statement, oral; cited from earlier work
human IDH1 mutated AML [3] = assay: Transplantation and treatment of mice (PDX model of IDH1 mutated AML); conditions: for leukemic cells in peripheral blood: monotherapy, week 4 until end of treatment at week 12, Compound A1 150 mg/kg p.o. once daily, azacitidine 1 mg/kg s.c. days 1-5
Description: Leukemic cells from an AML patient with mutated DH1, NPM1, FLT3-TKD and NRAS were xenografted in immunocompromised mice. One million patient-derived AML cells collected from bone marrow and spleen of leukemic mice were injected intravenously in the tail vein of sublethally (3 Gy) irradiated NSG mice. […] The proportion of leukemic cells in peripheral blood of mice was measured with a human-specific CD45 antibody by tail vein bleeds and FACS analysis. The control groups were treated with either vehicle, Compound A1 150 mg/kg once daily p.o. continuously, or azacitidine 1 mg/kg once daily s.c. days 1-5, repeated once after 28 days. The test groups were treated with Compound A1 and azacitidine in the doses mentioned above either starting both drugs on day 1 (parallel group) or starting azacitidine on day 1 but Compound A1 on day 6 (sequential group).

| Structure (SMILES) | IC50 [1] | colony formation (IDH1 wildtype AML cells) | anti-leukemic activity in PDX models of IDH1 mutant AML in vivo (human IDH1 mutated AML [2]) | leukemia in week 20 (human IDH1 mutated AML [3]; Compound A1 alone, 8 weeks after stopping the treatment) | leukemic cells in peripheral blood (human IDH1 mutated AML [3]) |
| --- | --- | --- | --- | --- | --- |
| C[C@H]1C[C@@H](n2c(Nc3ccc(OC(F)(F)F)cc3)nc3cc(CCC(=O)O)ccc32)CC(C)(C)C1 [Compound A1, 3-(2-{[4-(trifluoromethoxy)phenyl]amino}-1-[(1R,5R)-3,3,5-trimethylcyclohexyl]-1H-benzimidazol-5-yl)propanoic acid] | 0.1 µM | not affected | strong anti-leukemic activity | relapsed | declined |
| Nc1ncn([C@@H]2O[C@H](CO)[C@@H](O)[C@H]2O)c(=O)n1 [azacitidine, 5-azacytidine, reference compound] |  |  |  |  | constantly increased |
